In patent publication US4349546A, “D-Allose derivative and preparation method therefor” (Wakamoto Pharmaceutical Co., Ltd., priority 1980, dated 1982):

How the values were obtained:
[1] = tested on: early stage encephalophyma, melanoma, lymphoma; settings: background statement; cited from earlier work
[2] = tested on: Peripheral leukocyte count; assay: Effects on peripheral leukocyte count (Test Example 6); type: in vivo, DDY mice
Excerpt: Comparison of effects of CNUA and Me-CCNU* on peripheral leukocyte count:
Six-week old DDY mice each weighing 22±1 g; one group comprising 5 male mice.
CNUA and Me-CCNU were given intraperitoneally on the first day. The, blood was drawn from a tail vein at time intervals to determine the leukocyte count. The samples were used in the form of a solution in an isotonic sodium chloride solution.

[3] = tested on: tumor; settings: background statement; cited from earlier work

## O=NN(CCCl)C(=O)NCCCl [BCNU, 1,3-bis-(2-chloroethyl)-1-nitrosourea]
[1]
  effectiveness against tumors: effective against early stage encephalophyma, melanoma, lymphoma

## O=NN(CCCl)C(=O)NC1CCCCC1 [CCNU, 1-(2-chloroethyl)-3-cyclohexyl-1-nitrosourea]
[1]
  effectiveness against tumors: effective against early stage encephalophyma, melanoma, lymphoma

## C[C@H]1CC[C@H](NC(=O)N(CCCl)N=O)CC1 [Me-CCNU, 1-(2-chloroethyl)-3-(trans-4-methylcyclohexyl)-1-nitrosourea, reference compound]
[2]; 20 mg/kg ip, 2 day
  Peripheral leukocyte count after the administration: 55.0 % based on the control
[2]; 20 mg/kg ip, 4 day
  Peripheral leukocyte count after the administration: 53.3 % based on the control
[2]; 20 mg/kg ip, 7 day
  Peripheral leukocyte count after the administration: 50.2 % based on the control
[2]; 20 mg/kg ip, 10 day
  Peripheral leukocyte count after the administration: 59.5 % based on the control
[2]; 20 mg/kg ip, 14 day
  Peripheral leukocyte count after the administration: 145 % based on the control
[2]; 40 mg/kg ip, 2 day
  Peripheral leukocyte count after the administration: 56.0 % based on the control
[2]; 40 mg/kg ip, 4 day
  Peripheral leukocyte count after the administration: 36.5 % based on the control
[2]; 40 mg/kg ip, 7 day
  Peripheral leukocyte count after the administration: 34.0 % based on the control
[2]; 40 mg/kg ip, 10 day
  Peripheral leukocyte count after the administration: 40.7 % based on the control
[2]; 40 mg/kg ip, 14 day
  Peripheral leukocyte count after the administration: 78.1 % based on the control
[1]
  effectiveness against tumors: effective against early stage encephalophyma, melanoma, lymphoma

## O=NN(CCCl)C(=O)N[C@H]1C(O)O[C@H](CO)[C@@H](O)[C@@H]1O (stereo partly drawn) [chlorozotocin]
[3]
  antitumor effects: exhibit antitumor effects

## CN(N=O)C(=O)N[C@H]1C(O)O[C@H](CO)[C@@H](O)[C@@H]1O (stereo partly drawn) [streptozotocin]
[3]
  antitumor effects: exhibit antitumor effects
